We go through two compounds from patent publication US8044050B2, “Imidazo[1,2-a]azines and their use as pharmaceuticals” (Sanofi-Aventis, priority 2007, dated 2011).

Molecules are shown by their SMILES. pEC50: −log10 of the molar value.

This experiment has as its system eNOS promoter. Put plainly: Activation of eNOS transcription (eNOS promoter-luciferase reporter gene assay). The experiment is classed as cell-based. Particulars: human endothelial cell line stably transfected with eNOS promoter-luciferase construct; 18 h incubation; determined graphically; read-out: EC50 values of transcription induction ratios (TIR). The protocol:
Activation of eNOS transcription was measured as described in detail by Li et al., “Activation of protein kinase C alpha and/or epsilon enhances transcription of the human endothelial nitric oxide synthase gene”, Mol. Pharmacol. 53 (1998) 630. Briefly, a 3.5 kB long fragment 5′ of the starting codon of the eNOS gene was cloned, sequenced and cloned in firefly luciferase expression plasmids to monitor activation of the eNOS promoter by reporter gene activity. A human endothelial cell line stable transfected and expressing this promoter-reporter construct was used for compound testing. Cells were incubated for 18 h with the compounds.
All compounds were dissolved in sterile dimethyl sulfoxide (DMSO). A final concentration of 0.5% DMSO in complete medium was allowed. Induction of reporter gene expression in these cells was measured using a standard luciferase assay system (Promega, Cat. No. E150) according to the manufacturer's instructions. Luciferase induction in cells incubated with compounds were compared to those incubated with solvent alone. The ratio of both activities (transcription induction ratio, TIR) was plotted as a function of compound concentration. […] EC50 values of transcription induction ratios as a function of compound concentration were determined graphically.
A general note: Reporter assays use an easily measured gene product as a stand-in for the process of interest.

Take `Fc1ccc(-c2cn3nc(Cl)ccc3n2)cc1` [Example 8, 6-Chloro-2-(4-fluoro-phenyl)-imidazo[1,2-b]pyridazine]: the pEC50 was more than 6.30.
On to `Nc1ccc2nc(-c3ccc(F)cc3)cn2n1` [Example 7, 2-(4-Fluoro-phenyl)-imidazo[1,2-b]pyridazin-6-ylamine], for which the pEC50 is more than 6.30.
